Measurements reported in US11407723B2, “Selective histone deacetylase inhibitors for the treatment of human disease” (Shuttle Pharmaceuticals, Inc., priority 2018, dated 2022).

How the values were obtained:
Assay type in all cases: biochemical
[1] = biological target: HDAC1 protein (Homo sapiens, UniProt Q13547); experiment: in vitro HDAC enzyme inhibition assay, HDAC1 (selectivity of HDAC6 over HDAC1); conditions: HDAC6 vs HDAC1
Description: (§1) The compounds were tested against Pan HDAC, HDAC1, HDAC3, and HDAC6 proteins in vitro.

[2] = biological target: T1, HDAC6 protein (Homo sapiens, UniProt Q9UBN7); experiment: in vitro HDAC enzyme inhibition assay, HDAC6; conditions: for inhibitory activity against HDAC6 protein: FIGS. 1 and 2A-2C
T1 sequence (Q9UBN7 1-1215): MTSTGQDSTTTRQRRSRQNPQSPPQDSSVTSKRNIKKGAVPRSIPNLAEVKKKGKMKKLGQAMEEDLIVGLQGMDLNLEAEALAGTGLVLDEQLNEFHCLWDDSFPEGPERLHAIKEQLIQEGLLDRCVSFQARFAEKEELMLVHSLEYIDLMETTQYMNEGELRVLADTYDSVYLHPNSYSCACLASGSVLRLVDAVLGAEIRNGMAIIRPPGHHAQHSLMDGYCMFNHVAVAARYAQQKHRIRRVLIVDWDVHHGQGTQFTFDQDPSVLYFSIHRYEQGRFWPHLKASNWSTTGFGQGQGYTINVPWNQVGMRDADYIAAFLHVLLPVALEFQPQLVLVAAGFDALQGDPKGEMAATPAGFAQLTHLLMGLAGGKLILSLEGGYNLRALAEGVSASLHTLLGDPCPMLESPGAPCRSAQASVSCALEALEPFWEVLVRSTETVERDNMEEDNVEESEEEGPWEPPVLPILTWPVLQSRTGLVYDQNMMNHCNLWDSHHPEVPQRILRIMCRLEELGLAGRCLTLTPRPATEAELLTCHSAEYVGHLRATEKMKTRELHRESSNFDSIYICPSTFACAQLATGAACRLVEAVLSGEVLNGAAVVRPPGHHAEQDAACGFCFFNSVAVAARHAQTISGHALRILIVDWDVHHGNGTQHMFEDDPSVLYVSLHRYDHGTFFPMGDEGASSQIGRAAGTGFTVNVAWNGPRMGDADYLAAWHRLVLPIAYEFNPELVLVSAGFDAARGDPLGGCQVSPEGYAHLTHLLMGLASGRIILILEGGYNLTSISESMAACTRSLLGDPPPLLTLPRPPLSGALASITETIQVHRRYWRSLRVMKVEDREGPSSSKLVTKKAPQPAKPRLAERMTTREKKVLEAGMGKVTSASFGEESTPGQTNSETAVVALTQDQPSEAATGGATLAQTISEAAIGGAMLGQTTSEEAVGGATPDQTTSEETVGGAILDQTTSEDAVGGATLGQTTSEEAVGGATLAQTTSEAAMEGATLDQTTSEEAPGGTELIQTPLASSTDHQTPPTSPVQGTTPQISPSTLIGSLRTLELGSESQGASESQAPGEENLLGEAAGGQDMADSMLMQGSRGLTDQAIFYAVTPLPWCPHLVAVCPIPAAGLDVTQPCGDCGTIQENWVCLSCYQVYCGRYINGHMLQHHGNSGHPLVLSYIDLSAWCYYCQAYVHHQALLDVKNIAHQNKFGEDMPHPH
Description: as §1

[3] = biological target: HDAC3 protein (Homo sapiens, UniProt O15379); experiment: in vitro HDAC enzyme inhibition assay, HDAC3 (selectivity of HDAC6 over HDAC3); conditions: HDAC6 vs HDAC3
Sequence of HDAC3 protein (O15379 whole entry): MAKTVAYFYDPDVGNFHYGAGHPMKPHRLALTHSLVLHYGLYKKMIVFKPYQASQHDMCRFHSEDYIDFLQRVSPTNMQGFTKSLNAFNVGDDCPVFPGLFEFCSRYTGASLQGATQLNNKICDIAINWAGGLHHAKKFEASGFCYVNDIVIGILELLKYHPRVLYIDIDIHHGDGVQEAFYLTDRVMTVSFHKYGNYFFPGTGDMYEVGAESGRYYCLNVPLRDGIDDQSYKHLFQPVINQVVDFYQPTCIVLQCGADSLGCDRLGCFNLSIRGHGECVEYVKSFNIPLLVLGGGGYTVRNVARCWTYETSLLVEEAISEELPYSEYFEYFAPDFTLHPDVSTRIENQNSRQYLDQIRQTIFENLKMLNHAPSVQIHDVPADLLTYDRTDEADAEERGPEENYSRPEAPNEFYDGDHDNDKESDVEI
Sequence of HDAC3 protein (Q9Y618 395-489 partner limits assumed): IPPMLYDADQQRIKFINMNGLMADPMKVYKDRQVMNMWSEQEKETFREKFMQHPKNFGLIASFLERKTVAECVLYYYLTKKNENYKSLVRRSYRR
Description: as §1

Sequence of HDAC1 protein (Q13547 whole entry): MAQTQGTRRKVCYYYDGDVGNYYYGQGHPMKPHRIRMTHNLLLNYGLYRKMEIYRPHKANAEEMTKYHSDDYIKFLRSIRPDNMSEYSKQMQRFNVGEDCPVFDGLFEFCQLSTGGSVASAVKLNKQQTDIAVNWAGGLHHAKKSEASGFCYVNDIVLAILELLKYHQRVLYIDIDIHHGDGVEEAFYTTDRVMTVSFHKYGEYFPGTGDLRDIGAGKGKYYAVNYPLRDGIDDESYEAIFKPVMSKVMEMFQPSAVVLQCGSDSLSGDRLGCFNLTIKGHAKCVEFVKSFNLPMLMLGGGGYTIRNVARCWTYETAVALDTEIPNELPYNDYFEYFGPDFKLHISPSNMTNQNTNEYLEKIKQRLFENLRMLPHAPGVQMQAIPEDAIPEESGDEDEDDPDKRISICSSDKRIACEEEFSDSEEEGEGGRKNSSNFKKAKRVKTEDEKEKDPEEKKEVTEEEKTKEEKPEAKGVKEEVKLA

Structure (SMILES)	times more selective for HDAC6 as compared to HDAC1 [1]	inhibitory activity against HDAC6 protein [2]	selectivity for HDAC6 as compared to Pan-HDACs, HDAC1 and HDAC3 (in words) [2]	times more selective for HDAC6 as compared to HDAC3 [3]
Cc1nnc(NS(=O)(=O)c2ccc(NC(=O)CCCCCCC(=O)NO)cc2)s1 [SP-2-213, N^1-hydroxy-N^8-(4-(N-(5-methyl-1,3,4-thiadiazol-2-yl)sulfamoyl)phenyl) octanediamide]	about 4 times	inhibitors of HDAC6	selective inhibitors of HDAC6	about 12 times
Cc1cc(CNCCCCCC(=O)NO)ccc1OCc1cccc(-c2ccccc2)c1C [SP-2-225, N-hydroxy-6-((3-methyl-4-((2-methyl-[1,1′-biphenyl]-3-yl)methoxy)benzyl)amino)hexanamide]	about 65 times	inhibitors of HDAC6	selective inhibitors of HDAC6	about 22 times
